Test results from publication PMC7156458, “Synthetic biology based construction of biological activity-related library of fungal decalin-containing diterpenoid pyrones” (Nature Communications, 2020).

Target: Aβ42 (Homo sapiens, UniProt P05067)
Test: Th-T (thioflavin-T) assay of Aβ42 aggregation
Assay type: biochemical
Settings: for Th-T fluorescence, mean of three wells: Aβ42 aggregation time course

Chain of Aβ42 (P05067 672-713): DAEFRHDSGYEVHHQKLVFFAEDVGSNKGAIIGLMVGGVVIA

C=C1CCC2C(C)(CCC=C(C)C)C(O)CCC2(C)C1Cc1c(OC)oc(CO)c(C(=O)OC)c1=O (centres unmarked) [Compound 13]
first Th-T assay result (Aβ42 (10 μM) ± DPPs (20 μM), room temperature): clearly delayed nuclei formation of Aβ42 | Th-T fluorescence, mean of three wells (reading M117): 1.0387 | Th-T fluorescence, mean of three wells (reading M118): 1.037 | Th-T fluorescence, mean of three wells (reading M119): 1.04 | Th-T fluorescence, mean of three wells (reading M120): 1.034 | Th-T fluorescence, mean of three wells (reading M121): 1.036 | Th-T fluorescence, mean of three wells (reading M122): 1.039 | Th-T fluorescence, mean of three wells (reading M123): 1.034 | Th-T fluorescence, mean of three wells (reading M124): 1.036 | Th-T fluorescence, mean of three wells (reading M125): 1.037 | Th-T fluorescence, mean of three wells (reading M126): 1.037 | Th-T fluorescence, mean of three wells (reading M127): 1.0394 | Th-T fluorescence, mean of three wells (reading M128): 1.038 | Th-T fluorescence, mean of three wells (reading M129): 1.038 | Th-T fluorescence, mean of three wells (reading M130): 1.033 | nucleation phase of Aβ42 delayed until (Th-T fluorescence of Aβ42 alone began to increase after 4 h): 6 h | Th-T fluorescence, mean of three wells (Fig. 7a) (column suffix _10, measurement M19): 0.2324 | Th-T fluorescence, mean of three wells (Fig. 7a) (column suffix _10, measurement M20): 0.2323 | Th-T fluorescence, mean of three wells (Fig. 7a) (column suffix _10, measurement M21): 0.2394 | Th-T fluorescence, mean of three wells (Fig. 7a) (column suffix _10, measurement M22): 0.2441 | Th-T fluorescence, mean of three wells (Fig. 7a) (column suffix _10, measurement M23): 0.249 | Th-T fluorescence, mean of three wells (Fig. 7a) (column suffix _10, measurement M24): 0.2631 | Th-T fluorescence, mean of three wells (Fig. 7a) (column suffix _10, measurement M25): 0.2779 | Th-T fluorescence, mean of three wells (Fig. 7a) (column suffix _10, measurement M26): 0.3045 | Th-T fluorescence, mean of three wells (Fig. 7a) (column suffix _10, measurement M27): 0.3354 | Th-T fluorescence, mean of three wells (Fig. 7a) (column suffix _10, measurement M28): 0.3683 | Th-T fluorescence, mean of three wells (Fig. 7a) (column suffix _10, measurement M29): 0.4093 | Th-T fluorescence, mean of three wells (Fig. 7a) (column suffix _10, measurement M30): 0.4628 | Th-T assay signal, mean of three wells (Fig. 7a) (column suffix _10, reading M1): 0.2437 | Th-T assay signal, mean of three wells (Fig. 7a) (column suffix _10, reading M2): 0.2496 | Th-T assay signal, mean of three wells (Fig. 7a) (column suffix _10, reading M3): 0.25 | Th-T assay signal, mean of three wells (Fig. 7a) (column suffix _10, reading M4): 0.2515 | Th-T assay signal, mean of three wells (Fig. 7a) (column suffix _10, reading M5): 0.2448 | Th-T assay signal, mean of three wells (Fig. 7a) (column suffix _10, reading M6): 0.2438 | Th-T assay signal, mean of three wells (Fig. 7a) (column suffix _10, reading M7): 0.2403 | Th-T assay signal, mean of three wells (Fig. 7a) (column suffix _10, reading M8): 0.2367 | Th-T assay signal, mean of three wells (Fig. 7a) (column suffix _10, reading M9): 0.231 | Th-T assay signal, mean of three wells (Fig. 7a) (column suffix _10, reading M10): 0.233 | Th-T assay signal, mean of three wells (Fig. 7a) (column suffix _10, reading M11): 0.2291 | Th-T assay signal, mean of three wells (Fig. 7a) (column suffix _10, reading M12): 0.2292 | Th-T assay signal, mean of three wells (Fig. 7a) (column suffix _10, reading M13): 0.2301 | Th-T assay signal, mean of three wells (Fig. 7a) (column suffix _10, reading M14): 0.2289 | Th-T assay signal, mean of three wells (Fig. 7a) (column suffix _10, reading M15): 0.2274 | Th-T assay signal, mean of three wells (Fig. 7a) (column suffix _10, reading M16): 0.2305 | Th-T assay signal, mean of three wells (Fig. 7a) (column suffix _10, reading M17): 0.2352 | Th-T assay signal, mean of three wells (Fig. 7a) (column suffix _10, reading M18): 0.231 | Fig. 7a Th-T reading, mean of three wells (column suffix _10, reading M85): 1.544 | Fig. 7a Th-T reading, mean of three wells (column suffix _10, reading M86): 1.5365 | Fig. 7a Th-T reading, mean of three wells (column suffix _10, reading M87): 1.543 | Fig. 7a Th-T reading, mean of three wells (column suffix _10, reading M88): 1.544 | Fig. 7a Th-T reading, mean of three wells (column suffix _10, reading M89): 1.563 | Fig. 7a Th-T reading, mean of three wells (column suffix _10, reading M90): 1.554 | Fig. 7a Th-T reading, mean of three wells (column suffix _10, reading M91): 1.5515 | Fig. 7a Th-T reading, mean of three wells (column suffix _10, reading M92): 1.553 | Fig. 7a Th-T reading, mean of three wells (column suffix _10, reading M93): 1.554 | Fig. 7a Th-T reading, mean of three wells (column suffix _10, reading M94): 1.561 | Fig. 7a Th-T reading, mean of three wells (column suffix _10, reading M95): 1.563 | Fig. 7a Th-T reading, mean of three wells (column suffix _10, reading M96): 1.547 | Fig. 7a Th-T reading, mean of three wells (column suffix _10, reading M97): 1.551 | Fig. 7a Th-T reading, mean of three wells (column suffix _10, reading M98): 1.554 | Fig. 7a Th-T reading, mean of three wells (column suffix _10, reading M99): 1.551 | Fig. 7a Th-T reading, mean of three wells (column suffix _10, reading M100): 1.555 | Fig. 7a Th-T reading, mean of three wells (column suffix _10, reading M101): 1.545 | Fig. 7a Th-T reading, mean of three wells (column suffix _10, reading M102): 1.552 | Fig. 7a Th-T reading, mean of three wells (column suffix _10, reading M103): 1.542 | Fig. 7a Th-T reading, mean of three wells (column suffix _10, reading M104): 1.5457 | Fig. 7a Th-T reading, mean of three wells (column suffix _10, reading M105): 1.553 | Fig. 7a Th-T reading, mean of three wells (column suffix _10, reading M106): 1.551 | Th-T fluorescence, mean of three wells (Fig. 7a) (column suffix _20, measurement M19): 0.1811 | Th-T fluorescence, mean of three wells (Fig. 7a) (column suffix _20, measurement M20): 0.1836 | Th-T fluorescence, mean of three wells (Fig. 7a) (column suffix _20, measurement M21): 0.1846 | Th-T fluorescence, mean of three wells (Fig. 7a) (column suffix _20, measurement M22): 0.1853 | Th-T fluorescence, mean of three wells (Fig. 7a) (column suffix _20, measurement M23): 0.1827 | Th-T fluorescence, mean of three wells (Fig. 7a) (column suffix _20, measurement M24): 0.1835 | Th-T fluorescence, mean of three wells (Fig. 7a) (column suffix _20, measurement M25): 0.1855 | Th-T fluorescence, mean of three wells (Fig. 7a) (column suffix _20, measurement M26): 0.1899 | Th-T fluorescence, mean of three wells (Fig. 7a) (column suffix _20, measurement M27): 0.1923 | Th-T fluorescence, mean of three wells (Fig. 7a) (column suffix _20, measurement M28): 0.1912 | Th-T fluorescence, mean of three wells (Fig. 7a) (column suffix _20, measurement M29): 0.1931 | Th-T assay signal, mean of three wells (Fig. 7a) (column suffix _20, reading M1): 0.2486 | Th-T assay signal, mean of three wells (Fig. 7a) (column suffix _20, reading M2): 0.2414 | Th-T assay signal, mean of three wells (Fig. 7a) (column suffix _20, reading M3): 0.2279 | Th-T assay signal, mean of three wells (Fig. 7a) (column suffix _20, reading M4): 0.2173 | Th-T assay signal, mean of three wells (Fig. 7a) (column suffix _20, reading M5): 0.206 | Th-T assay signal, mean of three wells (Fig. 7a) (column suffix _20, reading M6): 0.2044 | Th-T assay signal, mean of three wells (Fig. 7a) (column suffix _20, reading M7): 0.2009 | Th-T assay signal, mean of three wells (Fig. 7a) (column suffix _20, reading M8): 0.1963 | Th-T assay signal, mean of three wells (Fig. 7a) (column suffix _20, reading M9): 0.1897 | Th-T assay signal, mean of three wells (Fig. 7a) (column suffix _20, reading M10): 0.1909 | Th-T assay signal, mean of three wells (Fig. 7a) (column suffix _20, reading M11): 0.1894 | Th-T assay signal, mean of three wells (Fig. 7a) (column suffix _20, reading M12): 0.1902 | Th-T assay signal, mean of three wells (Fig. 7a) (column suffix _20, reading M13): 0.1854 | Th-T assay signal, mean of three wells (Fig. 7a) (column suffix _20, reading M14): 0.184 | Th-T assay signal, mean of three wells (Fig. 7a) (column suffix _20, reading M15): 0.1861 | Th-T assay signal, mean of three wells (Fig. 7a) (column suffix _20, reading M16): 0.1835 | Th-T assay signal, mean of three wells (Fig. 7a) (column suffix _20, reading M17): 0.1852 | Th-T assay signal, mean of three wells (Fig. 7a) (column suffix _20, reading M18): 0.1827 | Fig. 7a Th-T reading, mean of three wells (column suffix _20, reading M85): 1.042 | Fig. 7a Th-T reading, mean of three wells (column suffix _20, reading M86): 1.037 | Fig. 7a Th-T reading, mean of three wells (column suffix _20, reading M87): 1.045 | Fig. 7a Th-T reading, mean of three wells (column suffix _20, reading M88): 1.0511 | Fig. 7a Th-T reading, mean of three wells (column suffix _20, reading M89): 1.059 | Fig. 7a Th-T reading, mean of three wells (column suffix _20, reading M90): 1.054 | Fig. 7a Th-T reading, mean of three wells (column suffix _20, reading M91): 1.0453 | Fig. 7a Th-T reading, mean of three wells (column suffix _20, reading M92): 1.043 | Fig. 7a Th-T reading, mean of three wells (column suffix _20, reading M93): 1.047 | Fig. 7a Th-T reading, mean of three wells (column suffix _20, reading M94): 1.054 | Fig. 7a Th-T reading, mean of three wells (column suffix _20, reading M95): 1.054 | Fig. 7a Th-T reading, mean of three wells (column suffix _20, reading M96): 1.04 | Fig. 7a Th-T reading, mean of three wells (column suffix _20, reading M97): 1.041 | Fig. 7a Th-T reading, mean of three wells (column suffix _20, reading M98): 1.046 | Fig. 7a Th-T reading, mean of three wells (column suffix _20, reading M99): 1.051 | Fig. 7a Th-T reading, mean of three wells (column suffix _20, reading M100): 1.05
